Experimental data from patent publication US20060293309A1, “Method of treating disorders and conditions using peripherally-restricted antagonists and inhibitors” (Dynogen Pharmaceuticals, Inc., priority 2005, published 2006).

Tests used:
[1] = biological target: T1, 5-HT3 human recombinant receptors from HEK-293 cells (Homo sapiens, UniProt P46098); assay: 5-HT3 human recombinant binding assay ([3H]GR 65630)
T1 construct: expressed in transfected cells; host or cells: HEK-293
T1 sequence (P46098 24-478): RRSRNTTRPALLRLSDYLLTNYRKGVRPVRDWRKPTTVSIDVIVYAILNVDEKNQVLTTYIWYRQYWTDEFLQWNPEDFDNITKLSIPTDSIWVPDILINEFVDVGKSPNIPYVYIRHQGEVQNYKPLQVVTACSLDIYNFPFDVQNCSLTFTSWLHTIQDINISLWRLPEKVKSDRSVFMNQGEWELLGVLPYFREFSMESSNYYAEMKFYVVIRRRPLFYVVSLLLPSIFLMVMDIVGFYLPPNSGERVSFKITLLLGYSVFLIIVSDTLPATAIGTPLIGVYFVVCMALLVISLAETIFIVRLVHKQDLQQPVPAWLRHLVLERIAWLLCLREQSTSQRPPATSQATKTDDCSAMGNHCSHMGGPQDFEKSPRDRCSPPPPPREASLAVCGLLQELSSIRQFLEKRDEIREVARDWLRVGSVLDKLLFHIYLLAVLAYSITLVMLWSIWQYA
Experimental: (§1) The binding of MCI 225 QUAT to various receptors/transporters was compared to that of the non-quaternized parent compound, MCI-225. Binding assays were performed essentially according to procedures as follows.
The 5-HT3 human recombinant binding assay was performed essentially as described in Lummis et al. (1990) Eur. J. Pharmacol. 189:223-27; Hoyer et al. (1988) Mol. Pharmacol. 33:303; and Tyers et al. (1991) Therapie 46:431-435. Briefly, human recombinant receptors were from HEK-293 cells. Tritiated radioligand (GR 65630) was used. % specific binding was determined as a function of log [compound]. MDL 72222 (1 alpha H, 3 alpha, 5 alpha H-tropan-3-yl-3,5-dichlorobenzoate) was used as nonspecific determinant, reference compound and positive control.

[2] = biological target: T2, norepinephrine transporter (NET), human recombinant from CHO cells (Homo sapiens, UniProt P23975); assay: norepinephrine transporter (NET) binding assay ([3H]nisoxetine)
T2 construct: expressed in transfected cells; host or cells: CHO
T2 sequence (P23975 whole entry): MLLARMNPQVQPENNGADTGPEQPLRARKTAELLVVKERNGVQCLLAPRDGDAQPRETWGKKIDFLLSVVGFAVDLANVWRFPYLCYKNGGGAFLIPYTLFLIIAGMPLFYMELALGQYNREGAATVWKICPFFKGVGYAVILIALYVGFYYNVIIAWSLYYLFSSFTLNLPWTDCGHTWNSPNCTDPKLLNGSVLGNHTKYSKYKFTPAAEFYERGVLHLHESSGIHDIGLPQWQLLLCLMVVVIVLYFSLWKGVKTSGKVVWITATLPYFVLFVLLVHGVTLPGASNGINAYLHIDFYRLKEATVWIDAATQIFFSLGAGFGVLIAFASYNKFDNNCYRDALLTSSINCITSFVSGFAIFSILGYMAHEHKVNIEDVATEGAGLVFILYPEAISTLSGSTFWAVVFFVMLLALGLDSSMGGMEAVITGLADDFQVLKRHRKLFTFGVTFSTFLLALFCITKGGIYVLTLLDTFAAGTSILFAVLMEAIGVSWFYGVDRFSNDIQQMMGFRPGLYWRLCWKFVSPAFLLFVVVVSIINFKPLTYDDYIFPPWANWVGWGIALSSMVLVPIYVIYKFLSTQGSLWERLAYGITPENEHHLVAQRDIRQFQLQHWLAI
Experimental: as §1
The norepinephrine transporter (NET) assay was performed essentially as described in Raisman et al. (1982) Eur. J. Pharmacol. 78:345-351 (minor modifications); and Raisman and Briley (1981) Eur. J. Pharmacol. 72:423. Briefly, human recombinant receptors were from CHO cells. Tritiated radioligand (nisoxetine) was used. % specific binding was determined as a function of log [compound]. Desipramine (DMI) was used as nonspecific determinant, reference compound and positive control.

[3] = biological target: T3, serotonin transporter (SERT), human platelet membranes (Homo sapiens, UniProt P31645); assay: serotonin transporter (SERT) binding assay ([3H]N-methyl citalopram)
T3 construct: Briefly, human recombinant receptors were from human platelet membranes; from tissue; host or cells: human platelet membranes
T3 sequence (P31645 whole entry): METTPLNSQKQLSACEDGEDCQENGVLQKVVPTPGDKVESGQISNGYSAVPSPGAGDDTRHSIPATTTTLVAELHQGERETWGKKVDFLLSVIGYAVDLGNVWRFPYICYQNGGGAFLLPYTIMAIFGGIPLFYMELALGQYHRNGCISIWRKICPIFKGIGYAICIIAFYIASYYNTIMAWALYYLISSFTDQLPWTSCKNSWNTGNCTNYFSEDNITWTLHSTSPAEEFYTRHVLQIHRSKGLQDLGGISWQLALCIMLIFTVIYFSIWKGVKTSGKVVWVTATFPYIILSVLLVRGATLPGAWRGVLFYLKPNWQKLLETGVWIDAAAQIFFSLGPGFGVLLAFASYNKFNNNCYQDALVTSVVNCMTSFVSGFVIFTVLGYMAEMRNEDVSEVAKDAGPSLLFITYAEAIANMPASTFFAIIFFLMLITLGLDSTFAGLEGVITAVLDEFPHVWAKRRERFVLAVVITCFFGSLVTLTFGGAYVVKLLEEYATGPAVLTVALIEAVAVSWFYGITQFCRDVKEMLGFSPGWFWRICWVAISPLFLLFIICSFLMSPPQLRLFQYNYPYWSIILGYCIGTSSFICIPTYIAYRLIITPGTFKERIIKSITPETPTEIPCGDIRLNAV
Experimental: Binding assays were performed essentially according to procedures as follows.
The serotonin transporter (SERT) assay was performed essentially as described in D'Armato et al. (1987) J. Pharmacol. & Exp. Ther. 242:364-371 (with modification); and Brown et al. (1986) Eur. J. Pharmacol. 123:161-165. Briefly, human recombinant receptors were from human platelet membranes. Tritiated radioligand (N-methyl citalopram) was used. % specific binding was determined as a function of log [compound]. Imipramine was used as nonspecific determinant, reference compound and positive control.

cisplatin-induced emesis = assay: cisplatin-induced retching and vomiting in the ferret; type: in vivo, ferret (Mustela putario furo); settings: 5 mg/kg and 10 mg/kg i.p., 6 h observation
Experimental: The suitability of a compound of the invention to reduce retching and vomiting therapeutically is assessed in an accepted animal model of cytotoxin-induced emesis. Specifically, the experiments described herein are used to investigate the effect of a compound to reduce cisplatin-induced retching and/or vomiting in the ferret. Ondansetron is used as a positive control in the model, in view of its known antiemetic activity (Rudd and Naylor, Eur. J. Pharmacol., 322: 79-82 (1997)).
Adult male ferrets (Mustela putario furo) weighing 1200-1880g are purchased from Triple F Farns (Sayre, Pa.) and housed in individual cages at standardized conditions (12:12 h light/dark cycle and 21-23° C.). […]
Experiments are performed essentially as follows. […] Following administration of the cisplatin and either the test compound, ondansetron (control) or vehicle alone, the occurrence of retching and vomiting is monitored for a period of 6 hours. […] The latency of the retching or vomiting response and the number of episodes are recorded for each animal and are summarized for each experimental group (Wright et al., Infect. Immun., 68(4): 2386-9 (2000)). […]
Cisplatin is expected to induce an emetic response in 100% of the animals receiving vehicle alone. […] The mean latency of the first response post-cicplatin administration is also determined.

| Structure (SMILES) | 5-HT3 (hr) % specific binding ([1]; Conc. 1.00E−06) [%] | 5-HT3 (hr) % specific binding ([1]; Conc. 1.00E−08) [%] | 5-HT3 (hr) % specific binding ([1]; Conc. 1.00E−10) [%] | NET (hr) % specific binding ([2]; Conc. 1.00E−06) [%] | NET (hr) % specific binding ([2]; Conc. 1.00E−08) [%] | NET (hr) % specific binding ([2]; Conc. 1.00E−10) [%] | SERT (h) % specific binding ([3]; Conc. 1.00E−06) [%] | SERT (h) % specific binding ([3]; Conc. 1.00E−08) [%] | SERT (h) % specific binding ([3]; Conc. 1.00E−10) [%] | latency of the first emetic response induced by cisplatin (cisplatin-induced emesis) | number of emetic events induced by cisplatin (cisplatin-induced emesis) |
| --- | --- | --- | --- | --- | --- | --- | --- | --- | --- | --- | --- |
| Cc1cc2c(-c3ccccc3F)nc(N3CCNCC3)nc2s1 [compound 225, 4-(2-fluoro-phenyl)-6-methyl-2-piperazin-1-yl-thieno[2,3-d]pyrimidine] | 100 | 22 | 0 | 104 | 72 | 17 | 94 | 10 | 1 | – | – |
| Cc1nccn1CC1CCc2c(c3ccccc3n2C)C1=O (centres unmarked) [Ondansetron, ondansetron] | – | – | – | – | – | – | – | – | – | increase the latency | reduce the number of emetic events |
